Data taken from patent US20130029981A1, “COMPOUNDS, COMPOSITIONS, AND METHODS FOR CONTROLLING BIOFILMS” (Katholieke Universiteit Leuven, priority 2009, published 2013).

Experiments:
Experiment in all cases: Bioscreen assay: influence on planktonic growth curve
[1] = tested on: Pseudomonas aeruginosa PA14; type: cell-based; parameters: key: x: no influence on the planktonic growth at the IC50 for biofilm inhibition; ∘: planktonic growth is retarded at the IC50 for biofilm inhibition; details: planktonic growth at the IC50 for biofilm inhibition, 25° C.
Text: (§1) Some of the tested compounds show a concentration range in which biofilm formation is inhibited but no effect on planktonic growth is observed. These compounds are particularly interesting for prevention of biofilm formation since the development of resistance against these compounds is less likely. Table 8 indicates whether the different compounds have an effect on the planktonic growth of the bacteria at the IC50 for biofilm inhibition. To construct Table 8, the effect of the tested compounds on the growth curve of the bacteria was determined at a concentration equal to the IC50 for biofilm inhibition, by using the Bioscreen system available from Oy Growth Curves Ab Ltd). The Bioscreen device from Oy Growth Curves Ab Ltd was used for measuring the influence of the chemical compounds on the planktonic growth of Salmonella Typhimurium and Pseudomonas aeruginosa. The Bioscreen is a computer controlled incubator/reader/shaker that uses 10×10 well microtiter plates and measures light absorbance of each well at a specified wave length in function of time. An overnight culture of S. […] The broth used was TSB 1/20 for the experiments at 16° C. and 25° C. For experiments at 37° C. CFA medium was used for S. […] As a control 3 μl of the appropriate solvent (DMSO or EtOH) was also added to the plate in 3- or 4-fold. The microtiter plate was incubated in the Bioscreen device at 16° C., 25° C. or 37° C. for at least 36 hours, with continious medium shaking. The absorbance of each well was measured at 600 nm each 15 minutes. Excel was used to generate the growth curves for treated the treated wells and the untreated control wells. Some of the compounds show a concentration range in which biofilm formation is inhibited but no effect on the planktonic growth is observed. […] To construct this table the effect of the compounds on the growth curve of the bacteria was determined at a concentration equal to the IC50 for biofilm inhibtion, by using the Bioscreen system from Oy Growth Curves Ab Ltd.

S. Typhimurium ATCC14028 [2] = type: cell-based, Salmonella Typhimurium; details: 400 μM
Text: Some of the tested compounds show a concentration range in which biofilm formation is inhibited but no effect on planktonic growth is observed. These compounds are particularly interesting for prevention of biofilm formation since the development of resistance against these compounds is less likely. Table 8 indicates whether the different compounds have an effect on the planktonic growth of the bacteria at the IC50 for biofilm inhibition. To construct Table 8, the effect of the tested compounds on the growth curve of the bacteria was determined at a concentration equal to the IC50 for biofilm inhibition, by using the Bioscreen system available from Oy Growth Curves Ab Ltd). The Bioscreen device from Oy Growth Curves Ab Ltd was used for measuring the influence of the chemical compounds on the planktonic growth of Salmonella Typhimurium and Pseudomonas aeruginosa. The Bioscreen is a computer controlled incubator/reader/shaker that uses 10×10 well microtiter plates and measures light absorbance of each well at a specified wave length in function of time. An overnight culture of S. […] The broth used was TSB 1/20 for the experiments at 16° C. and 25° C. For experiments at 37° C. CFA medium was used for S. […] As a control 3 μl of the appropriate solvent (DMSO or EtOH) was also added to the plate in 3- or 4-fold. The microtiter plate was incubated in the Bioscreen device at 16° C., 25° C. or 37° C. for at least 36 hours, with continious medium shaking. The absorbance of each well was measured at 600 nm each 15 minutes. Excel was used to generate the growth curves for treated the treated wells and the untreated control wells. Some of the compounds show a concentration range in which biofilm formation is inhibited but no effect on the planktonic growth is observed. Table 14 indicates if the different compounds have an effect on the planktonic growth of the bacteria at the IC50 for biofilm inhibition. To construct this table the effect of the compounds on the growth curve of the bacteria was determined at a concentration equal to the IC50 for biofilm inhibtion, by using the Bioscreen system from Oy Growth Curves Ab Ltd.

[3] = tested on: Pseudomonas aeruginosa PA14; type: cell-based; parameters: key: x: no influence on planktonic growth at the IC50 for biofilm inhibition; planktonic growth is retarded at the IC50 for biofilm inhibition; details: planktonic growth at the IC50 for biofilm inhibition, 25° C.
Text: Some of the tested compounds show a concentration range in which biofilm formation is inhibited but no effect on planktonic growth is observed. These compounds are particularly interesting for prevention of biofilm formation since the development of resistance against these compounds is less likely. Table 8 indicates whether the different compounds have an effect on the planktonic growth of the bacteria at the IC50 for biofilm inhibition. To construct Table 8, the effect of the tested compounds on the growth curve of the bacteria was determined at a concentration equal to the IC50 for biofilm inhibition, by using the Bioscreen system available from Oy Growth Curves Ab Ltd). The Bioscreen device from Oy Growth Curves Ab Ltd was used for measuring the influence of the chemical compounds on the planktonic growth of Salmonella Typhimurium and Pseudomonas aeruginosa. The Bioscreen is a computer controlled incubator/reader/shaker that uses 10×10 well microtiter plates and measures light absorbance of each well at a specified wave length in function of time. An overnight culture of S. […] The absorbance of each well was measured at 600 nm each 15 minutes. […] To construct this table the effect of the compounds on the growth curve of the bacteria was determined at a concentration equal to the IC50 for biofilm inhibtion, by using the Bioscreen system from Oy Growth Curves Ab Ltd.

S. Typhimurium ATCC14028 [4] = type: cell-based, Salmonella Typhimurium; parameters: key: x: no influence on planktonic growth at the IC50 for biofilm inhibition; planktonic growth is retarded at the IC50 for biofilm inhibition; details: planktonic growth at the IC50 for biofilm inhibition, 25° C.
Text: as §1

Structure (SMILES): OC1(c2ccc(Cl)cc2)C[n+]2cccnc2N1C1CCCCC1.[Br-] (stereo not drawn) [Compound 64]
- Influence on growth [1]: x

Structure (SMILES): OC1(c2ccc(I)cc2)C[n+]2cccnc2N1Cc1ccccc1.[Br-] (stereo not drawn) [Compound 73]
- Influence on growth [1]: x
- Effect on growth at 400 μM (S. Typhimurium ATCC14028 [2]): ∘

Structure (SMILES): O=[N+]([O-])c1ccc(C2(O)C[n+]3cccnc3N2C2CCCCCCCCCCC2)cc1.[Br-] (stereo not drawn) [Compound 69]
- Influence on growth [3]: ∘
- Influence on growth (S. Typhimurium ATCC14028 [4]): ∘

Structure (SMILES): OC1(c2ccc(-c3ccccc3)cc2)C[n+]2cccnc2N1C1CCCC1.[Br-] (stereo not drawn) [R1=Cyclopentyl, R3=4-biphenylyl, R4=H, 1-cyclopentyl-2-hydroxy-2-(4-biphenylyl)-2,3-dihydro-1H-imidazo[1,2-a]pyrimidin-4-ium bromide]
- Influence on growth [1]: x
